This is an account of results in US20070082937A1, “Anti cancer combinations comprising a cox-2 inhibitor” (Cancer Research Technology Limited, priority 2003, published 2007).

SMILES strings stand for the structures.

The subject of experiment [1] is colon 38 tumours. As to the kind of experiment: Tumour growth delay assay. It is filed as in vivo, mice. On the procedure: C57B1/6 mice from the Animal Resource Unit, University of Auckland, were bred and housed under conditions of constant temperature and humidity, with sterile bedding and food, according to institutional ethical guidelines. All mice were aged between 8 and 12 weeks.
DMXAA was synthesized as the sodium salt (Rewcastle et al., (1990) Journal of National Cancer Institute 82:528-529). DMXAA sodium salt was dissolved in neutral aqueous solution and 25 mg/kg, in a volume of 0.1 ml per 10 g body weight, was injected intraperitoneally (i.p.) into mice.
Vioxx™ (Sigma) was made up in neutral aqueous solution and 100 or 150 mg/kg, in a volume of 0.1 ml per 10 g body weight, was injected intraperitoneally (i.p.) into mice. […]
Colon 38 tumour fragments (˜1 mm^3) were implanted subcutaneously (s.c.) in anaesthetized (sodium pentobarbitone, 90 mg/kg) mice. […] Tumour-bearing mice were treated with drugs according to the administration schedule described before, and the tumours measured using calipers, at three day intervals thereafter. Tumour volumes were calculated as 0.52a^2b, where a and b are the minor and major axes of the tumour, respectively. The arithmetic means were calculated for each time point, counting cured tumours as zero volume. The growth delay was determined as the difference in the number of days required for the control versus treated tumours to increase four times in volume. […]

Experiment [2] has as its system tumour blood flow. As to conditions: human tumours, well-tolerated doses, dynamic MRI; cited from earlier work.

Regarding `Cc1ccc2c(=O)c3cccc(CC(=O)O)c3oc2c1C` [DMXAA, 5,6-dimethylxanthenone-4-acetic acid], the mice cured entry in experiment [1] (DMXAA alone 25 mg/kg i.p., colon 38 tumours s.c. in mice, 6 mice) was “None and no cure”. Besides, in experiment [2], the tumour blood flow result is “significant reduction”.

For `CS(=O)(=O)c1ccc(C2=C(c3ccccc3)C(=O)OC2)cc1` [Vioxx™, rofecoxib, reference compound], the “effect on the growth of colon 38 tumours” value in experiment [1] (Vioxx alone 150 mg/kg i.p., colon 38 tumours s.c. in C57Bl/6 mice) was “no significant effect”.
